# Measured values as given in ChEMBL document CHEMBL1126464, “Carbamate series of juvenoids” (Bioorg Med Chem Lett, 1992).
# What was measured:
# Dysdercus cingulatus = experiment: Effective dose that causes 50 % inhibition of Dysdercus cingulatus (DYS) was determined.; type: functional
# Acyrthosiphon pisum = experiment: Concentration required for 50% inhibition of acyrthosiphon pisum (ACY) was expressed as percent of active ingredient.; type: functional, organism-based
# Galleria mellonella = experiment: Effective dose that causes 50 % inhibition of Galleria mellonella (GAL) was determined.; type: functional
SMILES,IC50 (Acyrthosiphon pisum) [%],ED50 (Dysdercus cingulatus) [µg/kg],ED50 (Galleria mellonella) [µg/kg]
CCOC(=O)NCCOc1ccc(CC2CCCCC23OCCO3)cc1 (stereo not given),0.005,80,0.8
CCOC(=O)/C=C(C)/C=C/CC(C)CCCC(C)C (stereo not given) [HYDROPRENE],0.04,1000,10

# Continued, in another order:
IC50 (Acyrthosiphon pisum) [%],SMILES,ED50 (Dysdercus cingulatus) [µg/kg],ED50 (Galleria mellonella) [µg/kg]
0.05,CCOC(=O)NCCOc1ccc(CC2CCCCC2=O)cc1 (stereo not given),8,0.2
> 0.1,CCOC(=O)NCCOc1ccc(C[C@H]2CCCC[C@@H]2O)cc1,40,0.8
> 0.1,CCOC(=O)NCCOc1ccc(C[C@@H]2CCCC[C@@H]2O)cc1,1,0.8
